In brackets after ≈: the same amount, converted by molar mass. Read-outs that look alike come from different tables or passages of the source.
Experiments:
[1] = system: FosB enzyme from Gram-positive pathogens; test: Isothermal titration calorimetry; type: binding; conditions: data not shown
FosA3 WT = FosA3 WT (Escherichia coli, UniProt D7UQM0); test: Tryptophan fluorescence binding studies
[2] = system: KPC-producing clinical strain E. cloacae YDC612; test: Growth curve analysis, FOM dose response with or without ANY1; type: cell-based; conditions: 112 μg/mL ANY1; P<0.05
[3] = system: FosA3-producing E. coli YD472; test: as above; type: cell-based; conditions: 112 μg/mL ANY1; P=0.04
[4] = system: carbapenemase (KPC)-producing K. pneumoniae clinical strain I1; test: Bacterial growth curve analysis (Gompertz model); type: cell-based; conditions: for IC50: Klebsiella pneumoniae, read-out: IC50 for FOM (concentration decreasing maximum growth by 50%)
Method: Briefly, an overnight culture of K. pneumoniae I1 was diluted in Mueller-Hinton broth in a 96-well plate, incubated at 37° C. (150 rpm), and OD600 was assessed every 30 min.
The growth curves were modeled using a modified 3-parameter Gompertz equation (Zwietering et al., Appl Environ Microbiol 1990, 56(6)1875-81), which facilitated quantification of the lag time (min), growth rate (OD units/min) and maximum growth (OD units). […] The maximum growth value was determined from the curves in FIGS. 12A-12C using a 3-parameter Gompertz equation.

FosA3 R96A = FosA3 R96A (Escherichia coli, UniProt D7UQM0, R96A); test: Tryptophan fluorescence binding studies
OK cells = test: CellTiter-Glo luminescent cell viability assay; type: cell-based, marsupial; conditions: 0-224 μg/mL ANY1; data not shown
Method: (§1) In all cases, cell viability was assessed using the CellTiter-Glo® luminescent cell viability assay.

FosA3 W34A = FosA3 W34A (Escherichia coli, UniProt D7UQM0, W34A); test: biochemical
[5] = system: fosfomycin-resistant, FosA-producing Klebsiella pneumoniae; test: Growth inhibition of fosfomycin-resistant FosA-producing bacteria; type: cell-based; conditions: with 32 μg/mL fosfomycin; K. pneumoniae
Method: (§2) Each bacterial strain is resistant to fosfomycin and caries the species-specific fosfomycin-modifying gene encoding FosA.
(§3) An overnight culture of each antibiotic-resistant bacterium was grown in Mueller-Hinton Broth at 37° C., 150 rpm. The following day, the culture was diluted such that its OD600 was 0.2. The diluted culture was allowed to grow at 37° C. for 1 h. Following this, the culture was diluted such that its OD600 was 0.1. In a 96-well, round-bottom plate, three groups were set-up. […] Group three contained 10 two-fold dilutions of fosfomycin (0-1024 μg/mL). All groups contained 25% volume of the […] and 25 μg/mL glucose-6-phosphate. The plate was incubated at 37° C. for up to […]. The OD600 was assessed every […]. Data was analyzed in PRISM software or SigmaPlot® software (Systat Software Inc., San Jose, Calif.). The initial OD600 subtracted as background, and fit with a logistic growth curve.

[6] = system: fosfomycin-resistant, FosA-producing Enterobacter cloacae; test: as above; type: cell-based; conditions: with 32 μg/mL fosfomycin; E. cloacae
Method: as §2, §3

[7] = system: fosfomycin-resistant, FosA-producing Pseudomonas aeruginosa; test: as above; type: cell-based; conditions: with 32 μg/mL fosfomycin; P. aeruginosa
Method: as §2, §3

[8] = system: fosfomycin-resistant, FosA-producing Escherichia coli; test: as above; type: cell-based; conditions: with 32 μg/mL fosfomycin; E. coli
Method: as §2, §3

FosA3 Y131F = FosA3 Y131F (Escherichia coli, UniProt D7UQM0, Y131F); test: Tryptophan fluorescence binding studies
K. pneumoniae I1 = test: Time-kill experiments; type: cell-based; conditions: FOM with ANY1
[9] = molecular target: FosA^KP (chromosomal K. pneumoniae FosA) (Klebsiella pneumoniae, UniProt W8UNW6); test: Isothermal titration calorimetry; type: binding
E. coli MurA = E. coli MurA (Escherichia coli, UniProt P0A749); test: Isothermal titration calorimetry; type: binding; conditions: data not shown
[10] = system: fosfomycin-resistant Escherichia coli strain containing a deletion in the uhpT gene; test: Growth curves of FosA-non-producing uhpT deletion strain; type: cell-based; conditions: absence and presence of 32 μg/mL fosfomycin; strain without FosA gene
Method: as §3
FIGS. 8A-8B show the growth curves of a fosfomycin-resistant Escherichia coli strain containing a deletion in the uhpT gene. […] Fosfomycin resistance is conferred by decreased transport of the antibiotic across the bacterial cell wall.

FosA3 Y39F = FosA3 Y39F (Escherichia coli, UniProt D7UQM0, Y39F); test: Tryptophan fluorescence binding studies
HK2 cells = test: CellTiter-Glo luminescent cell viability assay; type: cell-based, human; conditions: 0-224 μg/mL ANY1; data not shown
Method: as §1

FosA3 Y131A = FosA3 Y131A (Escherichia coli, UniProt D7UQM0, Y131A); test: Tryptophan fluorescence binding studies
FosA3 T9A = FosA3 T9A (Escherichia coli, UniProt D7UQM0, T9A); test: Tryptophan fluorescence binding studies
[11] = system: human peripheral blood mononuclear cells; test: CellTiter-Glo luminescent cell viability assay; type: cell-based; conditions: 0-224 μg/mL ANY1; data not shown
Method: as §1

FosA = FosA (Klebsiella pneumoniae, UniProt W8UNW6); test: Steady-state kinetics of ANY1 inhibition of FosA activity; type: biochemical; conditions: for Vmax: 0-50 mM fosfomycin
Method: Assays were carried out in a volume of 50 μl at 25° C. in 0.1 M sodium phosphate buffer (pH 8.0) containing 50 mM KCl, 25 μM MnCl2, 30 mM glutathione, and 0-50 mM fosfomycin. A 100 nM concentration of FosA was used to initiate the reaction, which was quenched after 20 minutes for FosA. Reactions were quenched by the addition of 150 μl methanol. Quenched reactions were diluted in 100 μl of 0.1 M sodium phosphate buffer (pH 8.0) containing 1 mM EDTA. Following the addition of 500 μM monochlorobimane, the concentration of glutathione was established by fluorescence spectroscopy using a SpectraMax M2 plate reader (Molecular Devices). A standard curve was prepared using 0 to 750 μM glutathione. Data were fitted to Michaelis Menten equations using SigmaPlot (Systat Software Inc., San Jose, Calif.).

[12] = system: KPC-producing clinical strain S. marcescens YDC760-2; test: Growth curve analysis, FOM dose response with or without ANY1; type: cell-based; conditions: 112 μg/mL ANY1; P<0.05
FosA3 S36A = FosA3 S36A (Escherichia coli, UniProt D7UQM0, S36A); test: Tryptophan fluorescence binding studies
FosA3 W46A = FosA3 W46A (Escherichia coli, UniProt D7UQM0, W46A); test: biochemical
FosA3 Y65F = FosA3 Y65F (Escherichia coli, UniProt D7UQM0, Y65F); test: Tryptophan fluorescence binding studies
[13] = molecular target: FosA^KP (K. pneumoniae chromosomal FosA) (Klebsiella pneumoniae, UniProt W8UNW6); test: FosA screening assay (monochlorobimane fluorescence, glutathione consumption); type: biochemical
[14] = system: chromosomal FosA genes expressed in E. coli; conditions: cited from earlier work
[15] = system: ESBL- and carbapenemase-producing Klebsiella pneumoniae; conditions: ESBL- and carbapenemase-producing K. pneumoniae; cited from earlier work

## O=c1[nH]n2cc(-c3n[nH]c(-c4cnc5c(Br)c(=O)[nH]n5c4)c3[N+](=O)[O-])cnc2c1Br [ANY1, 3-bromo-6-[3-(3-bromo-2-oxo-1H-pyrazolo[1,5-a]pyrimidin-6-yl)-4-nitro-1H-pyrazol-5-yl]-1H-pyrazolo[1,5-a]pyrimidin-2-one]
[1]
  Binding to FosB: did not bind
FosA3 WT
  Kd: 0.441 ± 0.0501 µM
[2]
  Decrease of the IC50 for FOM by ANY1: 23 fold
[3]
  Decrease of the IC50 for FOM by ANY1: 1.8 fold
[4]; 112 μg/mL ANY1, P<0.05
  Reduction of FOM IC50 by ANY1: ~6 fold
[4]; FOM 32, 64, 128 μg/mL with ANY1 14-224 μg/mL, dose dependent
  Bacterial growth when FOM was combined with ANY1: significantly attenuated
[4]; absence of FOM
  Effect of ANY1 alone on growth: no effect
[4]; gentamicin ± ANY1 dose-response
  Effect of ANY1 on the activity of gentamicin: did not alter the activity of gentamicin
[4]; highest ANY1 concentration tested
  Increase in FOM activity (maximum growth): ~6 fold
FosA3 R96A
  Kd: 0.541 ± 0.0901 µM
OK cells
  Impact on cell viability: no impact on cell viability
FosA3 W34A
  Kd: 2.62 ± 0.205 µM
[5]
  Inhibition of FosA in the strain, reversing fosfomycin resistance (growth curves): effectively inhibited FosA
[6]
  Inhibition of FosA in the strain, reversing fosfomycin resistance (growth curves): effectively inhibited FosA
[7]
  Inhibition of FosA in the strain, reversing fosfomycin resistance (growth curves): effectively inhibited FosA
[8]
  Inhibition of FosA in the strain, reversing fosfomycin resistance (growth curves): effectively inhibited FosA
FosA3 Y131F
  Kd: 0.551 ± 0.028 µM
K. pneumoniae I1
  Effect of ANY1 on FOM activity in time-kill: significantly increased FOM activity
[9]
  Kd: 0.18 ± 0.03 µM
E. coli MurA
  Binding to E. coli MurA: did not bind
[10]
  Inhibition of bacterial growth: did not inhibit the bacterial growth
FosA3 Y39F
  Kd: 0.868 ± 0.201 µM
HK2 cells
  Impact on cell viability: no impact on cell viability
FosA3 Y131A
  Kd: 4.88 ± 0.77 µM
FosA3 T9A
  Kd: 1.58 ± 0.0976 µM
[11]
  Impact on cell viability: no impact on cell viability
FosA; 5 μM ANY1
  Vmax: 118.2
FosA; 10 μM ANY1
  Vmax: 107
FosA; 20 μM ANY1
  Vmax: 154.6
FosA; data not shown
  Mode of inhibition with respect to glutathione: non-competitive inhibitor
FosA; varying fosfomycin, 0-20 μM ANY1
  Mode of inhibition with respect to fosfomycin binding to FosA: competitive inhibitor
[12]
  Decrease of the IC50 for FOM by ANY1: > 100 fold
FosA3 S36A
  Kd: 1.36 ± 0.132 µM
FosA3 W46A
  Kd: 2.47 ± 0.111 µM
FosA3 Y65F
  Kd: 0.784 ± 0.0747 µM
[13]
  IC50: 5 µM

## C[C@@H]1O[C@@H]1P(=O)(O)O [FOM, Fosfomycin]
[4]; absence of ANY1
  IC50: 144 ± 16.5 µg/mL (≈ 1.04 mM)
[4]; presence of ANY1 (112 μg/mL)
  IC50: 23.2 ± 4.3 µg/mL
[14]; FosA of Enterobacter aerogenes
  MIC: >1024 µg/mL
[14]; FosA of Enterobacter cloacae
  MIC: >1024 µg/mL
[14]; FosA of Klebsiella oxytoca
  MIC: >1024 µg/mL
[14]; FosA of Klebsiella pneumoniae
  MIC: >1024 µg/mL
[14]; FosA of Morganella morganii
  MIC: >1024 µg/mL
[14]; FosA of Proteus mirabilis
  MIC: 9.8 µg/mL (≈ 0.071 mM)
[14]; FosA of Providencia rettgeri
  MIC: >1024 µg/mL
[14]; FosA of Providencia stuartii
  MIC: >1024 µg/mL
[14]; FosA of Pseudomonas aeruginosa
  MIC: 16 µg/mL (≈ 0.116 mM)
[14]; FosA of Serratia marcescens
  MIC: >1024 µg/mL
[15]
  MIC50: ~32 µg/mL (≈ 0.232 mM)
  MIC90: ~128 µg/mL (≈ 0.927 mM)

From US10980811B2, “Reversal of fosfomycin resistance” (University of Pittsburgh—Of the Commonwealth System of …, priority 2017, dated 2021)
